# Source: article PMC8540265, “Activity of New Synthetic (2-Chloroethylthio)-1,4-naphthoquinones in Prostate Cancer Cells” (Pharmaceuticals, 2021)
# Read-outs that look alike come from different tables or passages of the source.
# Columns and labels:
# [1] = system: 22Rv1 cells
# [2] = system: 22Rv1 cells; type: cell-based, human
# [3] = system: PNT2 cells; experiment: MTT cytotoxicity test, PNT2 cells; type: cell-based, human
# Description: (§1) A total of 6000 cells/well were seeded in 96-well plates, incubated overnight, and treated with the drugs in 100 μL/well of the corresponding fresh culture media for 48 h, as previously described. For combinational assays, the cells were pre-treated with the corresponding inhibitor for the indicated time and then co-treated with the tested compounds for 48 h. Then, 10 μL/well of MTT ((3-(4,5-dimethylthiazol-2-yl)-2,5-diphenyltetrazolium bromide) solution was added and the cell viability was measured as previously reported.
# [4] = system: 22Rv1 cells; experiment: MTT cytotoxicity test, 22Rv1 cells; type: cell-based, human
# Description: as §1
# [5] = system: PC-3 cells; type: cell-based, human
# [6] = Homo sapiens, PNT2, 48 h, MTT, non-cancer prostate cells
compound,measurement,setting,value
2-[2-(3-chlorophenyl)hydrazinylyidene]propanedinitrile [CCCP],effect on mitochondrial membrane potential (ΔΨm),[1],provoked mitochondrial membrane depolarization
"COc1ccc(C[C@H]2NC[C@H](O)[C@H]2OC(C)=O)cc1 [Aniso, anisomycin]",effect of pre-treatment with pan-caspase inhibitor zVAD on induced apoptosis,[2],Comparable effects
"COc1ccc2c(c1O)C(=O)C(O)=C(C)C2=O [Compound 11, ancistroquinone B]",IC50,[3]; [6],> 100 µM
same,IC50,"[4]; Homo sapiens, 22Rv1, 48 h, MTT",> 100 µM
"CC1=C(O)C(=O)c2c(ccc(O)c2O)C1=O [Compound 12, dioncoquinone B]",IC50,[3]; [6],> 100 µM
same,IC50,"[4]; Homo sapiens, 22Rv1, 48 h, MTT",89.5 ± 24.9 µM
"COc1cc2c(c(OC)c1OC)C(=O)C(CSCCCl)=C(O)C2=O [Compound 34, 3-((2-Chloroethylthio)methyl)-2-hydroxy-5,6,7-trimethoxy-1,4-naphthoquinone]",IC50,[3],> 100 µM
same,IC50,[4],> 100 µM
"O=C1C(O)=C(CSCCCl)C(=O)c2c(O)c(Cl)c(Cl)c(O)c21 [Compound 37, 6,7-Dichloro-2-((2-chloroethylthio)methyl)-3,5,8-trihydroxy-1,4-naphthoquinone]",IC50,[3],28.2 ± 1.04 µM
same,IC50,[4],48.6 ± 12.2 µM
same,Selectivity Index [IC50(PNT2)/IC50(22Rv1)],[4],0.58
"COc1cc(O)c2c(c1O)C(=O)C(O)=C(CSCCCl)C2=O [Compound 38, 2-((2-Chloroethylthio)methyl)-3,5,8-trihydroxy-6-methoxy-1,4-naphthoquinone]",IC50,[3],> 100 µM
same,IC50,[4],> 100 µM
CC(=O)O[C@@H]1O[C@H](CSC2=CC(=O)c3c(O)c(C)c(C)c(O)c3C2=O)[C@@H](OC(C)=O)[C@H](OC(C)=O)[C@H]1OC(C)=O [SAB-1],increase in activity in PC-3 cells on introduction of the 2-chloroethylthio group,[5],5 fold
